Assays:
MTAP^-/- HCT-116 cells = assay: Cell proliferation (MTS), MTAP-/- HCT-116; format: cell-based, human; conditions: for Selectivity: HCT116 WT IC50 relative to HCT116 MTAP-/- IC50; for IC50: Homo sapiens, 240 h, MTAP-/- HCT-116, 10 days with compound, MTS reading, read-out: IC50 HCT116 MTAP-/-
Description: The colon cancer cell strain HCT-116 (purchased from Nanjing Cobioer) was co-transfected with the gene editing tool CRISPR/Cas9 and sgRNA, and the MTAP^-/- HCT-116 cell strain with biallelic inactivation of MTAP was obtained by assays such as Western Blotting and Sanger sequencing. The MTAP^-/- HCT-116 cell strain was used for compound selectivity screening and evaluation based on the synergistic mechanism of MTAP deletion and PRMT5, including a symmetric dimethylarginine (SDMA) level test, a cell proliferation test, and the like.
On day 0, MTAP^-/- HCT-116 cells or wild-type HCT-116 cells were added to a 96-well cell culture plate (Corning, 3599) at 100 cells/well, and the plate was incubated in an incubator at 37 °C with 5% CO2. The compound was diluted in a 3-fold gradient with DMSO (Sigma, D5879) (initial concentration: 20 µM, 3-fold dilution, 8 concentration points in total). On day 1, the compound was diluted to multiple concentration points, and the cells were treated separately and incubated in the incubator at 37 °C with 5% CO2 for another 10 days. On Day 11, 20 µL of MTS (CellTiter 96® AQueous One Solution Cell Proliferation Assay) (Promega, G3581) was added to each well. […] In the formula, Y represents the inhibition rate, X represents the logarithm of the compound concentration, Top represents the maximum response (the inhibition rate at the maximum compound concentration), Bottom represents the baseline response (the inhibition rate where the compound concentration was 0), Hill Slope represents the slope of the IC50 curve, and IC50 represents the half maximal inhibitory concentration.

wild-type HCT-116 cells = assay: Cell proliferation (MTS), wild-type HCT-116; format: cell-based; conditions: Homo sapiens, 240 h; wild-type HCT-116, 10 days with compound, MTS reading; read-out: IC50 HCT116 WT
Experimental: MTAP^-/- HCT-116 and wild-type HCT-116 cell strains were cultured in complete medium McCoy's 5A (Gibco, 16600082)/10% FBS (Gibco, 10099141C)/1% p/s (Gibco, 15140122) to evaluate the enhanced inhibitory effect of the compounds against the proliferation selectivity of MTAP^-/- HCT-116 cells. On day 0, MTAP^-/- HCT-116 cells or wild-type HCT-116 cells were added to a 96-well cell culture plate (Corning, 3599) at 100 cells/well, and the plate was incubated in an incubator at 37 °C with 5% CO2. The compound was diluted in a 3-fold gradient with DMSO (Sigma, D5879) (initial concentration: 20 µM, 3-fold dilution, 8 concentration points in total). On day 1, the compound was diluted to multiple concentration points, and the cells were treated separately and incubated in the incubator at 37 °C with 5% CO2 for another 10 days. On Day 11, 20 µL of MTS (CellTiter 96® AQueous One Solution Cell Proliferation Assay) (Promega, G3581) was added to each well. […] In the formula, Y represents the inhibition rate, X represents the logarithm of the compound concentration, Top represents the maximum response (the inhibition rate at the maximum compound concentration), Bottom represents the baseline response (the inhibition rate where the compound concentration was 0), Hill Slope represents the slope of the IC50 curve, and IC50 represents the half maximal inhibitory concentration. Table 1. IC50 (µM)

Compound | Selectivity (MTAP^-/- HCT-116 cells) | IC50 (MTAP^-/- HCT-116 cells) [nM] | IC50 (wild-type HCT-116 cells) [nM]
Cc1cncc(C#Cc2ccc3c(c2)OC[C@H]3N(C)C(=O)c2cc3c(cc2Cl)nc(N)c2cnn(C)c23)c1 [Compound 65A, (S)-4-amino-7-chloro-N,1-dimethyl-N-(6-((5-methylpyridin-3-yl)ethynyl)-2,3-dihydrobenzofuran-3-yl)-1H-pyrazolo[4,3-c]quinoline-8-carboxamide] | 71 | 2 | 141
Cc1cc2nc(N)c3cnn(C)c3c2cc1C(=O)N(C)C1COc2cc(C#Cc3cnn(C4CC4)c3)ccc21 (stereo not drawn) [Compound 11, 4-amino-N-(6-((1-cyclopropyl-1H-pyrazol-4-yl)ethynyl)-2,3-dihydrobenzofuran-3-yl)-N,1,7-trimethyl-1H-pyrazolo[4,3-c]quinoline-8-carboxamide] | 62 | 3 | 185
Cc1c(C#Cc2ccc3c(c2)OC[C@H]3N(C)C(=O)c2cc3c4c(c(N)nc3cc2Cl)COC4)cnn1C1CC1 [Compound 71A, (S)-4-amino-7-chloro-N-(6-((1-cyclopropyl-5-methyl-1H-pyrazol-4-yl)ethynyl)-2,3-dihydrobenzofuran-3-yl)-N-methyl-1,3-dihydrofuro[3,4-c]quinoline-8-carboxamide] | 48 | 14 | 674
CN(C(=O)c1ccc2nc(N)c3cnn(C)c3c2c1)[C@@H]1COc2cc(C#Cc3cnn(C(F)F)c3)ccc21 [Compound 30A, (S)-4-amino-N-(6-((1-(difluoromethyl)-1H-pyrazol-4-yl)ethynyl)-2,3-dihydrobenzofuran-3-yl)-N,1-dimethyl-1H-pyrazolo[4,3-c]quinoline-8-carboxamide] | 83 | 2.9 | 240
Cc1cncc(C#Cc2ccc3c(c2)OC[C@H]3N(C)C(=O)c2cc3c(cc2F)nc(N)c2cnn(C)c23)c1 [Compound 47A, (S)-4-amino-7-fluoro-N,1-dimethyl-N-(6-((5-methylpyridin-3-yl)ethynyl)-2,3-dihydrobenzofuran-3-yl)-1H-pyrazolo[4,3-c]quinoline-8-carboxamide] | 115 | 5.2 | 598
CC(C)n1cc(C#Cc2ccc3c(c2)OCC3N(C)C(=O)c2cc3c(cc2F)nc(N)c2cnn(C)c23)cn1 (stereo not drawn) [Compound 13, 4-amino-7-fluoro-N-(6-((1-isopropyl-1H-pyrazol-4-yl)ethynyl)-2,3-dihydrobenzof uran-3-yl)-N,1-dimethyl-1H-pyrazolo[4,3-c]quinoline-8-carboxamide] | 55 | 11 | 607
CC(C)n1cc(C#Cc2ccc3c(c2)OCC3N(C)C(=O)c2ccc3nc(N)c4cnn(C)c4c3c2)cn1 (stereo not drawn) [Compound 19, 4-amino-N-(6-((1-isopropyl-1H-pyrazol-4-yl)ethynyl)-2,3-dihydrobenzofuran-3-yl)-N,1-dimethyl-1H-pyrazolo[4,3-c]quinoline-8-carboxamide] | 102 | 9.7 | 986
CN(C(=O)c1cc2c3c(c(N)nc2cc1Cl)COC3)[C@@H]1COc2cc(C#Cc3cnc4cnn(C)c4c3)ccc21 [Compound 76A, (S)-4-amino-7-chloro-N-methyl-N-(6-((1-methyl-1H-pyrazolo[4,3-b]pyridin-6-yl)ethynyl)-2,3-dihydrobenzofuran-3-yl)-1,3-dihydrofuro[3,4-c]quinoline-8-carboxamide] | 56 | 3 | 167
CN(C(=O)c1cc2c3c(c(N)nc2cc1Cl)COC3)[C@@H]1COc2cc(C#Cc3ccnn3C)ccc21 [Compound 78A, (S)-4-amino-7-chloro-N-methyl-N-(6-((1-methyl-1H-pyrazol-5-yl)ethynyl)-2,3-dihydrobenzofuran-3-yl)-1,3-dihydrofuro[3,4-c]quinoline-8-carboxamide] | 131 | 3.9 | 512
CN(C(=O)c1ccc2nc(N)c3cnn(C)c3c2c1)C1COc2cc(C#Cc3cn(C)nc3Cl)ccc21 (stereo not drawn) [Compound 34, 4-amino-N-(6-((3-chloro-1-methyl-1H-pyrazol-4-yl)ethynyl)-2,3-dihydrobenzofuran-3-yl)-N,1-dimethyl-1H-pyrazolo[4,3-c]quinoline-8-carboxamide] | 150 | 7.6 | 1140
CN(C(=O)c1cc2c(cc1F)nc(N)c1cnn(C)c12)C1COc2nc(C#Cc3cnn(C)c3)ccc21 (stereo not drawn) [Compound 33, 4-amino-7-fluoro-N,1-dimethyl-N-(6-((1-methyl-1H-pyrazol-4-yl)ethynyl)-2,3-dihydrofuro[2,3-b]pyridin-3-yl)-1H-pyrazolo[4,3-c]quinoline-8-carboxamide] | 129 | 4.4 | 567
CN(C(=O)c1cc2c(cc1F)nc(N)c1cnn(C)c12)[C@@H]1COc2cc(C#Cc3ccc4cnn(C)c4c3)ccc21 [Compound 60A, (5)-4-amino-7-fluoro-N,1-dimethyl-N-(6-((1-methyl-1H-indazol-6-yl)ethynyl)-2,3-dihydrobenzofuran-3-yl)-1H-pyrazolo[4,3-c]quinoline-8-carboxamide] | 61 | 8 | 486
Cc1c(C#Cc2ccc3c(c2)OCC3N(C)C(=O)c2cc3c(cc2F)nc(N)c2cnn(C)c23)cnn1C (stereo not drawn) [Compound 23, 4-amino-N-(6-((1,5-dimethyl-1H-pyrazol-4-yl)ethynyl)-2,3-dihydrobenzofuran-3-yl)-7-fluoro-N,1-dimethyl-1H-pyrazolo[4,3-c]quinoline-8-carboxamide] | 77 | 4 | 307
CN(C(=O)c1ccc2nc(N)c3cnn(C)c3c2c1)[C@@H]1COc2cc(C#Cc3cn(C)nc3Cl)ccc21 [Compound 34A, (S)-4-amino-N-(6-((3-chloro-1-methyl-1H-pyrazol-4-yl)ethynyl)-2,3-dihydrobenzofuran-3-yl)-N,1-dimethyl-1H-pyrazolo[4,3-c]quinoline-8-carboxamide] | 133 | 2 | 266
CN(C(=O)c1cc2c(cc1F)nc(N)c1cnn(C)c12)[C@@H]1COc2cc(C#Cc3cccnc3)ccc21 [Compound 48A, (S)-4-amino-7-fluoro-N,1-dimethyl-N-(6-(pyridin-3-ylethynyl)-2,3-dihydrobenzof uran-3-yl)-1H-pyrazolo[4,3-c]quinoline-8-carboxamide] | 71 | 2 | 141
CC(C)n1cc(C#Cc2ccc3c(c2)OC[C@H]3N(C)C(=O)c2ccc3nc(N)c4cnn(C)c4c3c2)cn1 [Compound 19A, (S)-4-amino-N-(6-((1-isopropyl-1H-pyrazol-4-yl)ethynyl)-2,3-dihydrobenzofuran-3-yl)-N,1-dimethyl-1H-pyrazolo[4,3-c]quinoline-8-carboxamide] | 149 | 8.7 | 1300
CCn1cc(C#Cc2ccc3c(c2)OCC3N(C)C(=O)c2ccc3nc(N)c4cnn(C)c4c3c2)cn1 (stereo not drawn) [Compound 20, 4-amino-N-(6-((1-ethyl-1H-pyrazol-4-yl)ethynyl)-2,3-dihydrobenzofuran-3-yl)-N, 1-dimethyl-1H-pyrazolo[4,3-c]quinoline-8-carboxamide] | 97 | 9.8 | 948
Cc1c(C#Cc2ccc3c(c2)OCC3N(C)C(=O)c2ccc3nc(N)c4cnn(C)c4c3c2)cnn1C (stereo not drawn) [Compound 29, 4-amino-N-(6-((1,5-dimethyl-1H-pyrazol-4-yl)ethynyl)-2,3-dihydrobenzofuran-3-yl)-N,1-dimethyl-1H-pyrazolo[4,3-c]quinoline-8-carboxamide] | 153 | 9.8 | 1500

Source: patent EP4755886A1 (Chengdu Chipscreen Pharmaceutical Ltd., priority 2023, dated 2025)
